The record followed here is patent US20150329864A1, “DESIGN OF OLIGONUCLEOTIDE ANALOGS AS THERAPEUTIC AGENTS” (SPRING BANK PHARMACEUTICALS, INC., priority 2010, published 2015).

Where two headings read alike, the source gives them in different places. Bounds are passed on as bounds.

Series [1] deals with EEEH protein. Briefly: EEEH expression in woodchucks after sublingual administration. The class given is in vivo. Particulars: following absorption by the sublingual route. How it is done: Compound 5 was administered by sublingual route to woodchucks, at a dose of […] in Transcutol, and blood was drawn periodically for analysis. Test results are provided in Tables 4 and 5 and FIG. 3 and FIG. 4.

The subject of series [2] is IRF3-luciferase reporter gene (activation of NOD2). Briefly: IRF3-luciferase reporter induction in HLE A549 cells endogenously expressing NOD2. The class given is cell-based, human. The settings on record: for Fold induction of IRF3 luciferase activity: 1 µM; for fold induction at 1 µM: Homo sapiens, A549, 12 h. How it is done: In the primary assays, di- and trinucleotide compounds were tested for the induction of IRF3 expression in HLE A549 cells, which are known to express NOD2.
HLE cells normally endogenously express NOD2. To determine if short oligonucleotide compounds activate NOD2, HLE cells transfected with IRF3 plasmid were employed. IRF3-luciferase transfected cells were incubated with either DMSO only (UT) or test compounds (1 μM). Following 12 h incubation, Luciferase activity was measured using Dual-Luciferase Reporter Assay System (Promega) according to the manufacturer's protocol. Transection efficiency was normalized by measuring the expression of renilla Luciferase. Luciferase units (i.e., fold induction) were measured by standard methodology.
On the technique in general: In a reporter assay the amount or activity of a reporter protein is the signal.

The test system of series [3] is Human Respiratory Syncytial Virus (RSV). The series can be described thus: RSV infectivity, plaque assay. The settings on record: human lung epithelial cells, RSV 0.5 MOI, 24 h post-infection. The class given is cell-based. How it is done: (A) RSV infectivity in untreated (UT) and SMNH-treated cells. Human lung epithelial cells were infected with RSV (0.5 MOI) in the absence (DMSO only) or presence of various SMNH compounds (1 μM). At 24 h post-infection, the medium supernatant was collected and the viral titer in the supernatant was assayed by plaque assay analysis using CV-1 cell monolayer, 100% RSV infection represents viral titer from cells incubated with DMSO only (UT cells). The values represent mean±S.D. for three independent determinations. S.D. is shown as error bars.
(B) A typical plaque assay showing RSV infectivty in UT and SMNH-treated cells. Culture supernatant from RSV infected cells (+/− SMNH) was added to CV-1 cells at a dilution of […]. Plaques were observed and quantitated on methylcellulose after crystal violet staining.

Series [4] deals with HBV wild type and drug resistant strains. The series can be described thus: HepG2.2.15 HBV assay. The class given is cell-based. Particulars: Hepatitis B virus, HepG2.2.15, read-out: EC50, inhibition of intracellular HBV replication. The protocol: Selected compounds were evaluated in in vitro cell-based HepG2.2.15 HBV assay.
Antiviral analysis. For the antiviral analyses, confluent cultures of 2.2.1.5 cells were maintained on 96-well flat-bottomed tissue culture plates in RPMI1640 medium with 2% fetal bovine serum. Cultures (6 per each test concentration on two replicate plates) were treated with 9 consecutive daily doses of the test compounds. Medium was changed daily with fresh test compounds. HBV nucleic acid and protein levels were measured 24 hours after the last treatment. Extracellular (virion) HBV DNA levels were assessed by quantitative blot hybridization. Intracellular HBV DNA levels were measured by quantitative Southern blot hybridization.

The subject of series [5] is hepatitis B virus (HBV). The series can be described thus: Effect of i.p. administration on hepatitis B virus in transgenic mice. The class given is in vivo. How it is done: Compound 5 was evaluated in transgenic mice expressing hepatitis B virus (HBV). […] Its activity was also similar to the adefovir dipivoxil (ADV) anti-HBV activity; however, the two compounds seemed to suppress different HBV DNA species. […] In contrast, Compound 5 appeared to indiscriminately remose all HBV DNA species, including the bands typically left by ADV, which may reflect a different mechanism of action other than classical chain termination. Serum HBe, liver HBs, and HBc were not affected by Compound 5 treatment, which is consistent in transgenic mice with compounds that block viral synthesis “downstream” from mRNA synthesis, such as blockage of polymerase activities. A minimal effective dosage was determined to be between 1.6-0.5 mg/kg/day, which was similar to ADV minimal effective dosage of 1.0 mg/kg/day (Table 8).

Series [6] relates to HCV replicon AVA5 (sub-genomic (CON1), genotype 1b). The series can be described thus: Primary anti-HCV assay, replicon cell line AVA5. The class given is cell-based. The settings on record: 3-day assay. How it is done:
Antiviral activity against HCV was assessed in a 3-day assay (Okuse, et al., 2005; Antiviral. Res. 65:23; Korba, et al., 2008, Antiviral Res. 77:56) using the stably-expressing HCV replicon cell line, AVA5 (sub-genomic (CON1), genotype 1b) (Blight, et al., 2000; Science 290:1972) maintained as sub-confluent cultures on 96-well plates. Antiviral activity was determined by blot hybridization analysis of intracellular HCV RNA (normalized to the level of cellular B-actin RNA in each culture sample). Cytotoxicity was assessed by neutral red dye uptake in cultures maintained in parallel plates.
EC50, EC90, and CC50 values were calculated by linear regression analysis (MS EXCEL®, QuattroPro®) using data combined from all treated cultures Korba & Gerin, 1992, Antivir. Res. 19:55; Okuse, et al., 2005, Antivir. Res. 65:23). Standard deviations for EC50 and EC90 values are calculated from the standard errors generated by the regression analyses, EC50 and EC90 are drug concentrations at which a 2-fold, or a 10-fold depression of intracellular HCV RNA (relative to the average levels in untreated cultures), respectively was observed. […] Recombinant human interferon 2b (PBL laboratories, Inc.) is used as an assay control.

A short description of series [7]: In vitro cytotoxicity, MTT assay. The format is cell-based. Particulars: cattle (MDBK), African green monkey (Vero), human (HFF). The protocol: Compounds 5 and 6k have excellent safety profile with CC50>1000 micromolar in a number of cell lines. Standard MTT assays were performed in 96-well plates using the Promega CellTiter96 Non-radioactive Cell Proliferation Assay Kit in conjunction with a 96-well Plate Reader (ThermoMax, Molecular devices), and MDBK, Vero, and HFF cell lines (obtained from ATCC). Several controls were employed including the nucleoside analogs 3TC, AZT, and ddC, as well as, media without drugs. SDS was used as a positive cytotoxic control. The compounds were tested in triplicate at concentrations of 100, 300, and 1000 μM. Following a 24-hour incubation of cells with the test substance, the MTT assay was carried out.

Series [8] has as its system macrophages. The format is cell-based.
[9] abbreviates: 1 μM, 12 h, HLE A549 cells, SMNH treated vs. untreated cells.
The mark [10] stands for this setting: 100 mg/kg/d i.p. once daily 14 days, group listed with C:E:S vehicle.
[11] abbreviates: 100 mg/kg/d i.p. once daily 14 days, group listed with saline placebo.

One may read the EC50 as the midpoint of the concentration-response curve. The CC50 is the concentration giving 50% cytotoxicity. For the molecule `CO[C@H]1C(OP(=O)(S)OC[C@H]2O[C@@H](n3cnc4c(N)ncnc43)CC2O)[C@@H](CO)O[C@H]1n1ccc(=O)[nH]c1=O` (stereo partly drawn) [Compound 5, 3-dApsU2′-OMe], the “kinetics of induction of the EEEH protein” value in series [1] is “very rapid”. For the same molecule, the “Fold induction of IRF3 luciferase activity” value in series [2] (setting [9]) is reported as 25 fold. The fold induction at 1 µM in series [2] (1 μM, 12 h, HLE A549 cells, SMNH treated vs. untreated cells, read-out: Fold induction of IRF3 luciferase activity) lay in the range of 15 to 20. Besides, the “% inhibition of RSV at 1 μM” value in series [3] (1 µM) turned out to be 82%. For the same molecule, in series [4], the half-maximal effective concentration (EC50) is 0.3 to 2 µM. In series [5] (setting [10]), the “Liver HBV DNA (mean pg viral/μg cellular DNA ± stdev)” value is 1.7 ± 1.5 (9) pg viral/μg cellular DNA, the “Liver HBV RNA (mean relative units ± stdev)” value came to 1.7 ± 0.3 relative units, the “Liver HBeAg (mean stained cells/100 × field ± stdev)” value is on record as 24 ± 15 stained cells/100 × field and the “Serum HBV DNA (mean log10 genome equivalents/mL serum ± stdev)” value is given as 5.4 ± 0.6 (7) log10 genome equivalents/mL serum. In addition, in series [5] (setting [10]), the “Serum HBeAg (mean ng/mL ± stdev)” value is 1241 ± 279 ng/mL and the “Serum HBsAg (mean ng/mL ± stdev)” value is on record as 28 ± 15 ng/mL. Moreover, in series [5] (setting [11]), the “Liver HBV DNA (mean pg viral/μg cellular DNA ± stdev)” value is given as 0.3 ± 0.4 (8) pg viral/μg cellular DNA and the “Serum HBV DNA (mean log10 genome equivalents/mL serum ± stdev)” value is on record as 5.0 ± 0.3 (8) log10 genome equivalents/mL serum. Moreover, the “effect on liver HBV DNA” value in series [5] (i.p. once daily 14 days, 100 mg/kg/day, saline or cremaphor:ethanol:saline vehicles) is “significantly reduced liver HBV DNA”. In series [5] (i.p. treatment), the “effect on serum HBe, liver HBs, and HBc” value is reported as “not affected”. In series [6] (Hepatitis C virus, Ava5, 72 h), this molecule registered an EC50 of roughly 3 µM. In addition, the CC50 at 24 h in series [7] was greater than 1000 µM. The “induction of IL-2” value in series [8] is reported as “showed induction of IL-2”.
In general, inhibition refers to the change of the read-out against control, counted positive when it falls. Consider `CO[C@H]1C(OP(=O)(OC[C@H]2O[C@@H](n3cnc4c(N)ncnc43)CC2O)SCOC(=O)OC(C)C)[C@@H](CO)O[C@H]1n1ccc(=O)[nH]c1=O` (stereo partly drawn) [Compound 6k], for which the “Fold induction of IRF3 luciferase activity” value in series [2] (setting [9]) came to 22 fold. In addition, the fold induction at 1 µM in series [2] (read-out: Fold induction of IRF3 luciferase activity, 1 μM, 12 h, HLE A549 cells, SMNH treated vs. untreated cells) was in the range of 15 to 20. In series [3] (human respiratory syncytial virus, Epithelial cell, 24 h), this molecule displayed an inhibition at 1 µM of 60 to 80%. Besides, in series [4], the concentration for a half-maximal effect (EC50) was in the range of 0.3 to 2 µM. Besides, in series [6], the “EC90, 10-fold depression of intracellular HCV RNA” value was “about 8 micromolar”. For the same molecule, the CC50 at 24 h in series [7] (MTT, 24-hour incubation, tested at 100, 300, and 1000 μM, read-out: CC50) was greater than 1000 µM.
